Assays:
[1] = tested on: fruit flies (Drosophila melanogaster); assay: Polymorph lethality, dust, residual exposure method, fruit flies; type: in vivo; details: for average knockdown time / median knockdown time (KT50): 2 mg deltamethrin dust; for average knockdown time / median knockdown time (KT50) / longest survival (no individual survived more than) / onset of hyperactivity: female fruit flies; for longest survival (no individual survived more than) / onset of hyperactivity: 2 mg dust in 35 mm Petri dish
Method: (§1) The effect of deltamethrin polymorphs on fruit flies was determined by the residual exposure method. Bruck, D. J.; Bolda, M.; Tanigoshi, L.; Klick, J.; Kleiber, J.; DeFrancesco, J.; Gerdeman, B.; Spitler, H. Laboratory and field comparisons of insecticides to reduce infestation of Drosophila suzukii in berry crops. Pest. Manag. Sci. 2011, 67, 1375-1385. Lethality assays were performed for each powder sample as well as a control. Female fruit flies (Drosophila melanogaster) were temporarily anesthetized by CO2 exposure, then transferred to the 35 mm diameter petri dishes with deltamethrin dust. The dishes were covered with their mating top and the motion of the fruit flies was recorded to establish knockdown time (i.e., the time after which there was no further translational motion).
The lethalities of the two crystalline forms of deltamethrin were compared by exposing fruit flies (Drosophila melanogaster), a well-established model for pesticide development (Schneider, D. Using Drosophila as a Model Insect. Nat. Rev. Genet. 2000, 1, 218-226), to 2 mg of the respective dusts (containing […] deltamethrin Form I or Form II) dispersed evenly in 35 mm-diameter plastic Petri dishes. Each trial was performed in triplicate for each crystalline form, as well as a control.
The motions of fruit flies were monitored by a video camera. A custom designed video process programmer was used to record the onset of hyperactivity and to track the time required for the expiration of the flies, as measured by knockdown. […] (FIG. 5A). Both the onset of hyperactivity and death occurred much later for deltamethrin Form I-exposed flies.
Lethality was deduced by the standard measurement of knockdown time, defined as time when a fly is immobile in a supine or sideways position for at least one second (i.e., no translational motion). Lindquist, A. W.; Jones, H. A.; Madden, A. H. DDT Residual-type sprays as affected by light. J. Econ. Entomol. 1946, 39, 55-59. Paralyzed flies never recover.
FIGS. 5A and 5B depict the graphs of the lethality comparison of the two forms of deltamethrin, in terms of fly velocities and knockdown times. The corresponding average knockdown times and median knockdown times (KT50) are denoted. The median knockdown time (KT50) for each polymorph was determined from multiple trials using twenty female flies each. KT50 is defined as the time required to render 50 percent of the insects motionless. Kawada, H.; Dida, G. O.; Ohashi, K.; Komagata, O.; Kasai, S.; Tomita, T.; Sonye, G.; Maekawa, Y.; Mwatele, C.; Njenga, S. M.; Mwandawiro, C; Minakawa, N.; Takagi, M. Multimodal pyrethroid resistance in malaria vectors, Anopheles gambiae s.s., Anopheles arabiensis, and Anopheles funestus s.s. in Western Kenya. PLoS One 2011, 6, No. e22574; Limoee, M.; Ladonni, H.; Enayati, A. A.; Vatandoost, H.; Aboulhasani, M. Detection of pyrethroid resistance and cross resistance to DDT in seven field-collected strains of the German cockroach, Blattella germanica (L.) (Dictyoptera: Blattellidae). J Biol. Sci. 2006, 6, 382-387. The average knockdown times for 2 mg deltamethrin dusts with Form I and Form II were 123 minutes and 21 minutes, respectively. The KT50 values were 113 minutes and 20 minutes, respectively (FIG. 5B).

[2] = tested on: yellow fever mosquitos (Aedes aegypti); assay: Polymorph lethality, dust, residual exposure method, Aedes mosquitoes; type: in vivo; details: for average knockdown time / median knockdown time (KT50): 2 mg deltamethrin dust
Method: as §1, with “on yellow fever mosquitos (Aedes aegypti)” for “on fruit flies”, “each dust” for “each powder”, “Female Aedes mosquitoes” for “Female fruit flies (Drosophila melanogaster)”, “the 90” for “the 35”, “the mosquitoes” for “the fruit flies”
The lethalities of the two crystalline forms of deltamethrin were compared by exposing yellow fever mosquitos (Aedes aegypti) to 2 mg of the respective dusts (containing […] deltamethrin Form I or Form II) dispersed evenly in 90 mm-diameter plastic Petri dishes. Each trial was performed in duplicate for each crystalline form, as well as a control.
The motions of mosquitoes were monitored by a video camera. A custom designed video process programmer was used to record the onset of hyperactivity and to track the time required for the expiration of the mosquitoes, as measured by knockdown. No Form I-exposed fly survived more than 300 minutes. […] (FIG. 6A). The death occurred much later for deltamethrin Form I-exposed mosquitoes.
Lethality was deduced by the standard measurement of knockdown time, defined as time when a mosquito is immobile in a supine or sideways position for at least one second (i.e., no translational motion). Lindquist, A. W.; Jones, H. A.; Madden, A. H. DDT Residual-type sprays as affected by light. J. Econ. Entomol. 1946, 39, 55-59. Paralyzed flies never recover.
FIGS. 6A and 6B depict the graphs of the lethality comparison of the two forms of deltamethrin, in terms of mosquito velocities and knockdown times. The corresponding average knockdown times and median knockdown times (KT50) are denoted. The median knockdown time (KT50) for each polymorph was determined from multiple trials using twenty female mosquitoes each. KT50 is defined as the time required to render 50 percent of the insects motionless. Kawada, H.; Dida, G. O.; Ohashi, K.; Komagata, O.; Kasai, S.; Tomita, T.; Sonye, G.; Maekawa, Y.; Mwatele, C.; Njenga, S. M.; Mwandawiro, C; Minakawa, N.; Takagi, M. Multimodal pyrethroid resistance in malaria vectors, Anopheles gambiae s.s., Anopheles arabiensis, and Anopheles funestus s.s. in Western Kenya. PLoS One 2011, 6, No. e22574; Limoee, M.; Ladonni, H.; Enayati, A. A.; Vatandoost, H.; Aboulhasani, M. Detection of pyrethroid resistance and cross resistance to DDT in seven field-collected strains of the German cockroach, Blattella germanica (L.) (Dictyoptera: Blattellidae). J. Biol. Sci. 2006, 6, 382-387. The average knockdown times for 2 mg deltamethrin Form I and Form II dust were 202 minutes and 22 minutes, respectively. The KT50 values were 192 minutes and 21 minutes, respectively (FIG. 6B).

Drosophila melanogaster = assay: Polymorph lethality, polyethylene glycol coated crystalline thin film; type: in vivo; details: for average knockdown time / median knockdown time (KT50): polyethylene glycol coated crystalline film (2.2*2.2 cm^2)
Excerpt: FIGS. 7A-7B are a lethality comparison of the two forms of deltamethrin. FIG. 7A is a graph depicting the velocities of fruit flies exposed to crystalline films (2.2*2.2 cm^2) of deltamethrin Form I and II; FIG. 7B is a comparison of Drosophila melanogaster knockdown times on crystalline films (2.2*2.2 cm^2) of deltamethrin Form I and Form II.
The knockdown times for neat thin films are too short to allow a valid comparison of their lethality. Therefore, thin films of deltamethrin Form I and Form II were prepared and partially coated by nebulized polyethylene glycol, producing islands of inert material with a small fraction of the deltamethrin film exposed (FIG. 7B). […] The corresponding average knockdown times and median knockdown times (KT50) are denoted. The average knockdown times for polyethylene glycol coated deltamethrin Form I and Form II crystalline film were 385 minutes and 70 minutes, respectively. The KT50 values were 400 minutes and 61 minutes, respectively (FIG. 7B).
This confirms that Form I dust is transformed to Form II dust by the microwave heating treatment.

[3] = Phase behavior / thermodynamic stability of deltamethrin polymorphs; type: physicochemical
Method: Thermodynamic stability of deltamethrin polymorphs was evaluated by the phase transformation behaviors and respective melting points. […] Rarely, transformation from Form II to Form I can be observed between crossed polarizers when spherulites of Form II are in contact with concomitant polycrystalline Form I (FIG. 4A, 4B). Form II fibers grow radially along their <010> direction. […] Upon phase transformation to Form I, the orientation of new grains become misaligned, resulting in a loss of observable birefringence. At room temperature the transformation can be observed by a moving growth front, which advances at a velocity of 0.3 μm/min.

[4] = female Aedes aegypti, 2 mg dust in 90 mm Petri dish

Row | Compound | average knockdown time [1] | median knockdown time (KT50) [1] | longest survival (no individual survived more than) [1] | onset of hyperactivity [1] | average knockdown time ([2]; female Aedes aegypti) | median knockdown time (KT50) ([2]; female Aedes aegypti) | longest survival (no individual survived more than) [2, 4] | average knockdown time (Drosophila melanogaster) | median knockdown time (KT50) (Drosophila melanogaster) | transformation of Form II to Form I on storage ([3]; crystalline film confined between glass slides, 6 months at room temperature) | room temperature stability ranking ([3]; room temperature) | velocity of the growth front of the Form II to Form I transformation ([3]; room temperature, Form II spherulites in contact with polycrystalline Form I) | lethality ranking ([1]; dust, fruit flies) | lethality ranking ([2]; dust, Aedes aegypti) | onset of hyperactivity [2, 4] | knockdown times, comparison of the forms (Drosophila melanogaster; thin films)
1 | CC1(C)[C@H](C(=O)O[C@H](C#N)c2cccc(Oc3ccccc3)c2)[C@@H]1C=C(Br)Br [Form I, (S)-cyano(3-phenoxyphenyl) methyl (1R,3R)-3-(2,2-dibromovinyl)-2,2-dimethylcyclopropane-1-carboxylate, reference compound] | 123 min | 113 min | ≤ 210 min | 40 min | 202 min | 192 min | ≤ 300 min | 385 min | 400 min | – | – | – | – | – | – | –
2 | CC1(C)[C@H](C(=O)O[C@H](C#N)c2cccc(Oc3ccccc3)c2)[C@@H]1C=C(Br)Br [Form II, (S)-cyano(3-phenoxyphenyl) methyl (1R,3R)-3-(2,2-dibromovinyl)-2,2-dimethylcyclopropane-1-carboxylate] | 21 min | 20 min | ≤ 40 min | as soon as they were exposed | 22 min | 21 min | ≤ 30 min | 70 min | 61 min | did not transform to Form I | Form I> Form II | 0.3 μm/min | more lethal than Form I | more lethal than Form I | as soon as they were exposed | shorter for Form II than for Form I

Reference: patent US11582971B2, “Crystalline forms of deltamethrin and methods of use thereof” (priority 2019, dated 2023)
